From BindingDB's records for doi:10.1021/jm00089a012 (Merck Sharp and Dohme Research Laboratories, 1992) come the findings set out here.

This experiment is described as follows: In vitro for the binding affinity against sigma receptor by using [3H]DTG as radioligand in guinea pig cerebellum.
The term IC50 denotes the concentration needed to halve the response being measured. The low end stands for greater potency, the high end for weaker potency. For the compound `CCCN1CCC2=C(CCc3ccccc32)C1`, the IC50 stood at 21 nM. Next, `CCCCN1CCC2c3ccccc3CCCC2C1` (centres undefined): 2.1 nM. Next, `c1coc(CN2CC[C@H]3c4ccccc4CC[C@H]3C2)c1`: 6.6 nM; `Clc1ccc(CN2CC[C@H]3c4ccccc4CC[C@H]3C2)cc1`: 4.7 nM. Regarding `CCCCN1CCC2=C(Cc3ccccc32)C1`, the IC50 was found to be 1.9 nM. Then `c1ccc(CCCN2CC[C@H]3c4ccccc4CC[C@H]3C2)cc1`, with 4.3 nM; and `c1ccc2c(c1)CC[C@H]1CN(C34C[C@H]5C[C@@H](C3)C[C@@H](C4)C5)CC[C@@H]21`, with 2.3 nM; and `c1ccc2c(c1)CC[C@H]1CN(C3CCCCC3)CC[C@@H]21`, with 0.251 nM. Next, `c1ccc(CCN2CC[C@H]3c4ccccc4CC[C@H]3C2)cc1`: 0.324 nM. Next, `c1csc(CN2CC[C@H]3c4ccccc4CC[C@H]3C2)c1`: 7.1 nM; `c1ccc(CN2CC[C@H]3c4ccccc4CC[C@H]3C2)nc1`: 17 nM. In turn, `c1ccc2c(c1)CC[C@H]1CN(CC3CC3)CC[C@@H]21` had an IC50 of 2.5 nM. `CCCCN1CC[C@H]2c3cc(C)cc(C)c3CC[C@H]2C1` showed an IC50 of 2 nM. Then `c1ccc2c(c1)CC[C@H]1CN(Cc3ccc4ccccc4c3)CC[C@@H]21`, with 81 nM. The compound `CCCCN1CC[C@@H]2c3ccccc3CC[C@H]2C1` had an IC50 of 3.1 nM. With `C=CCN1CC[C@H]2c3ccccc3CC[C@H]2C1`, the IC50 came to 4.6 nM.

As for `CCCCN1CCC2c3ccccc3CC2C1` (centres undefined), the IC50 is 11 nM. `CCCN1CC[C@H]2c3ccccc3CC[C@H]2C1` had a half-maximal inhibitory concentration (IC50) of 2.6 nM. Next, `CN1CC[C@@H]2c3ccccc3CC[C@H]2C1`: 447 nM; `CCCCN1CC[C@H]2c3ccccc3CC[C@H]2C1`: 6.3 nM; `O=[N+]([O-])c1ccc(CN2CC[C@H]3c4ccccc4CC[C@H]3C2)cc1`: 8.7 nM. In the case of `COc1ccc(CN2CC[C@H]3c4ccccc4CC[C@H]3C2)cc1`, the IC50 was determined as 2 nM.

Turning to `CN1CC[C@H]2c3ccccc3CC[C@H]2C1`, the IC50 was 339 nM. `c1ccc2c(c1)CC[C@H]1CN(C3[C@H]4C[C@@H]5C[C@@H](C[C@H]3C5)C4)CC[C@@H]21` (some centres undefined) registered an IC50 of 2.2 nM.
